Patent publication US20260200927A1, “NON PEPTIDERGIC AGONISTS OF OXYTOCIN RECEPTOR” (UNIVERSITE DE STRASBOURG, priority 2022, published 2026)

Assays:
oxytocin receptor = biological target: T1, oxytocin receptor (Homo sapiens, UniProt P30559); experiment: IP-One IP1 accumulation assay in CHO cell lines expressing oxytocin receptor (agonism); type: cell-based; conditions: CHO cells expressing oxytocin receptor, n = 3, read-out: OT-R EC50
T1 construct: expressed in transfected cells; host or cells: CHO cell lines
T1 sequence (P30559 1-389): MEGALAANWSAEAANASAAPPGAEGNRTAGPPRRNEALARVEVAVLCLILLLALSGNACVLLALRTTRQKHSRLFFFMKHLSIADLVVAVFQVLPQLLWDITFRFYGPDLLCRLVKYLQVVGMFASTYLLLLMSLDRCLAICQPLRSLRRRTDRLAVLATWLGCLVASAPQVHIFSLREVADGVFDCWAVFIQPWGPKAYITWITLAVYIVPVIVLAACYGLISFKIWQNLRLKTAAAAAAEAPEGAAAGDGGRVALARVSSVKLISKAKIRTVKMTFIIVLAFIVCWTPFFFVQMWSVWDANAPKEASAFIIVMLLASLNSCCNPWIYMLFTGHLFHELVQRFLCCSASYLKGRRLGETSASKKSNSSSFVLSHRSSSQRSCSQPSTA
Protocol: The activation constants (EC50 in nM) were measured in CHO cell lines expressing oxytocin receptor by IP-One IP1 accumulation assay. These values are the mean±SEM of at least three separate experiments performed in triplicate.

[1] = cited from earlier work
V1A-R = V1A-R (Homo sapiens, UniProt P37288); experiment: V1A receptor antagonism measured as calcium signal; type: cell-based; conditions: antagonist, n = 3, read-out: V1A-R (Antago) IC50
Sequence of V1A-R (P37288 whole entry, species assumed): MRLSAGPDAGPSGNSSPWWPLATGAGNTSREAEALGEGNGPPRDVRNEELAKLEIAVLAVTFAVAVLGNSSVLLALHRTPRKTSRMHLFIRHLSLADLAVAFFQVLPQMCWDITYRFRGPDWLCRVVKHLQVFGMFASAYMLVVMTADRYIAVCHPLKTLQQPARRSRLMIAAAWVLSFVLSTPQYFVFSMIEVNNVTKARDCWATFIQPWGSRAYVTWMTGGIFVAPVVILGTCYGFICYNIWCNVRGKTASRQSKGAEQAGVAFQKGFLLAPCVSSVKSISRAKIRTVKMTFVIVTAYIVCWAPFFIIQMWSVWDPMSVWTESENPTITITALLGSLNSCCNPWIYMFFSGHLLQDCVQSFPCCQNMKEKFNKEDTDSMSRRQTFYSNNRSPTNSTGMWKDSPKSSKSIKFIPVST

SMILES | EC50 (oxytocin receptor) [nM] | other results
Cc1cc(C(=O)N2Cc3cnn(C)c3Nc3ccccc32)ccc1CNC(=O)N1C[C@H](OCCCCO)C[C@H]1C(=S)N(C)C [Compound 7, (2S,4R)-2-(dimethylcarbamothioyl)-4-(4-hydroxybutoxy)-N-[(2-methyl-4-4-methyl-2,4,5,9-tetraazatricyclo[8.4.0.0,3,7]tetradeca-1(14),3(7),5,10,12-pentaene-9-carbonylphenyl)methyl]pyrrolidine-1-carboxamide] | 11.6 | –
Cc1cc(C(=O)N2Cc3cnn(C)c3Nc3ccccc32)ccc1CNC(=O)N1C[C@H](OCc2nnn[nH]2)C[C@H]1C(=S)N(C)C [Compound 19, (2S,4R)-2-(dimethylcarbamothioyl)-N-[(2-methyl-4-4-methyl-2,4,5,9-tetraazatricyclo[8.4.0.0,3,7]tetradeca-1(14),3(7),5,10,12-pentaene-9-carbonylphenyl)methyl]-4-[(1H-1,2,3,4-tetrazol-5-yl)methoxy]pyrrolidine-1-carboxamide] | 17.4 | –
Cc1cc(C(=O)N2Cc3cnn(C)c3Nc3ccccc32)ccc1CNC(=O)N1CC(OCCC2NC(=O)NC2=O)CC1C(=S)N(C)C [Compound 21, (2S,4R)-2-(dimethylcarbamothioyl)-4-[2-(2,5-dioxoimidazolidin-4-yl)ethoxy]-N-[(2-methyl-4-4-methyl-2,4,5,9-tetraazatricyclo[8.4.0.0,3,7]tetradeca-1(14),3(7),5,10,12-pentaene-9-carbonylphenyl)methyl]pyrrolidine-1-carboxamide] | 14.4 | –
Cc1cc(C(=O)N2Cc3cnn(C)c3Nc3ccccc32)ccc1CNC(=O)N1C[C@H](OCc2cccc(S(N)(=O)=O)c2)C[C@H]1C(=S)N(C)C [Compound 13, (2S,4R)-2-(dimethylcarbamothioyl)-N-[(2-methyl-4-4-methyl-2,4,5,9-tetraazatricyclo[8.4.0.0,3,7]tetradeca-1(14),3(7),5,10,12-pentaene-9-carbonylphenyl)methyl]-4-[(3-sulfamoylphenyl)methoxy]pyrrolidine-1-carboxamide] | 33 | –
CC[C@H](C)[C@@H]1NC(=O)[C@H](Cc2ccc(O)cc2)NC(=O)[C@@H](N)CSSC[C@@H](C(=O)N2CCC[C@H]2C(=O)N[C@@H](CC(C)C)C(=O)NCC(N)=O)NC(=O)[C@H](CC(N)=O)NC(=O)[C@H](CCC(N)=O)NC1=O [OT] | – | half-life in blood [1]: about 3 minute
CO[C@@H]1C[C@@H](C(=S)N(C)C)N(C(=O)NCc2ccc(C(=O)N3Cc4cnn(C)c4Nc4ccccc43)cc2C)C1 [Compound 3] | 33 | –
Cc1cc(C(=O)N2Cc3cnn(C)c3Nc3ccccc32)ccc1CNC(=O)N1C[C@H](F)C[C@H]1C(=S)N(C)C [Compound 1] | – | IC50 (V1A-R): 250 nM
Cc1cc(C(=O)N2Cc3cnn(C)c3Nc3ccccc32)ccc1CNC(=O)N1C[C@H](OCCCO)C[C@H]1C(=S)N(C)C [Compound 6, (2S,4R)-2-(dimethylcarbamothioyl)-4-(3-hydroxypropoxy)-N-[(2-methyl-4-4-methyl-2,4,5,9-tetraazatricyclo[8.4.0.0,3,7]tetradeca-1(14),3(7),5,10,12-pentaene-9-carbonylphenyl)methyl]pyrrolidine-1-carboxamide] | 29.8 | –
